± gives the expanded uncertainty stated by the source.
Legend:
[1] = excess molar enthalpy (molar enthalpy of mixing); xn = mol fraction of the nth substance listed; details: 308.15 K, 101 kPa, Liquid, Calvet calorimetry
[2] = xn = mol fraction of the nth substance listed; details: 308.15 K, 101 kPa, Liquid; for excess molar volume: Direct dilatometry; for speed of sound: Linear variable-path acoustic interferometer

C1CCOCC1 [tetrahydropyran] + C1CCCCC1
Details	excess molar enthalpy [kcal/mol]	excess molar volume [m3/mol]	speed of sound [m/s]
[1], x1 = 0.0634	0.0319 ± 0.000765	–	–
[1], x1 = 0.1146	0.0546 ± 0.00122	–	–
[1], x1 = 0.2073	0.088 ± 0.00194	–	–
[1], x1 = 0.2734	0.106 ± 0.00232	–	–
[1], x1 = 0.3379	0.118 ± 0.00263	–	–
[1], x1 = 0.3805	0.123 ± 0.00263	–	–
[1], x1 = 0.4339	0.127 ± 0.00287	–	–
[1], x1 = 0.5322	0.126 ± 0.00263	–	–
[1], x1 = 0.6045	0.118 ± 0.00263	–	–
[1], x1 = 0.6848	0.103 ± 0.00225	–	–
[1], x1 = 0.7529	0.0864 ± 0.00189	–	–
[1], x1 = 0.7939	0.0744 ± 0.00165	–	–
[1], x1 = 0.8564	0.054 ± 0.00122	–	–
[1], x1 = 0.8976	0.0394 ± 0.000908	–	–
[2], x1 = 0.0648	–	9.1e-08 ± 2e-09	–
[2], x1 = 0.0785	–	–	1209 ± 3
[2], x1 = 0.1372	–	1.72e-07 ± 3e-09	–
[2], x1 = 0.161	–	–	1205 ± 3
[2], x1 = 0.1954	–	2.24e-07 ± 3e-09	–
[2], x1 = 0.1965	–	–	1204 ± 3
[2], x1 = 0.2351	–	2.53e-07 ± 3e-09	–
[2], x1 = 0.2477	–	–	1202 ± 3
[2], x1 = 0.303	–	2.9e-07 ± 4e-09	–
[2], x1 = 0.3378	–	–	1200 ± 3
[2], x1 = 0.3575	–	3.1e-07 ± 4e-09	–
[2], x1 = 0.3879	–	–	1199 ± 3
[2], x1 = 0.433	–	–	1199 ± 3
[2], x1 = 0.4351	–	3.23e-07 ± 4e-09	–
[2], x1 = 0.4712	–	–	1199 ± 3
[2], x1 = 0.4911	–	3.22e-07 ± 4e-09	–
[2], x1 = 0.5344	–	–	1200 ± 3
[2], x1 = 0.5412	–	3.14e-07 ± 4e-09	–
[2], x1 = 0.5988	–	–	1202 ± 3
[2], x1 = 0.6421	–	–	1203 ± 3
[2], x1 = 0.6536	–	2.76e-07 ± 4e-09	–
[2], x1 = 0.721	–	2.4e-07 ± 3e-09	–
[2], x1 = 0.7533	–	–	1209 ± 3
[2], x1 = 0.7952	–	1.9e-07 ± 3e-09	–
[2], x1 = 0.8066	–	–	1212 ± 3
[2], x1 = 0.8827	–	1.17e-07 ± 3e-09	–
[2], x1 = 0.9325	–	7e-08 ± 2e-09	–

C1CCOCC1 [tetrahydropyran] + CCCCCC
Details	excess molar enthalpy [kcal/mol]	excess molar volume [m3/mol]	speed of sound [m/s]
[1], x1 = 0.0581	0.0246 ± 0.000621	–	–
[1], x1 = 0.1073	0.044 ± 0.001	–	–
[1], x1 = 0.1962	0.075 ± 0.00165	–	–
[1], x1 = 0.2274	0.0844 ± 0.00186	–	–
[1], x1 = 0.3276	0.109 ± 0.00239	–	–
[1], x1 = 0.3888	0.12 ± 0.00263	–	–
[1], x1 = 0.4395	0.126 ± 0.00263	–	–
[1], x1 = 0.4968	0.13 ± 0.00287	–	–
[1], x1 = 0.522	0.131 ± 0.00287	–	–
[1], x1 = 0.5931	0.129 ± 0.00287	–	–
[1], x1 = 0.6634	0.121 ± 0.00263	–	–
[1], x1 = 0.7514	0.103 ± 0.00225	–	–
[1], x1 = 0.8124	0.0849 ± 0.00186	–	–
[1], x1 = 0.8997	0.0509 ± 0.00115	–	–
[2], x1 = 0.0328	–	1.4e-08 ± 2e-09	–
[2], x1 = 0.0459	–	1.9e-08 ± 2e-09	–
[2], x1 = 0.0694	–	2.7e-08 ± 2e-09	–
[2], x1 = 0.0785	–	3e-08 ± 2e-09	–
[2], x1 = 0.0981	–	–	1054 ± 3
[2], x1 = 0.1294	–	4.4e-08 ± 2e-09	–
[2], x1 = 0.1561	–	4.9e-08 ± 2e-09	–
[2], x1 = 0.1578	–	–	1067 ± 3
[2], x1 = 0.1965	–	–	1075 ± 3
[2], x1 = 0.2753	–	6.4e-08 ± 2e-09	–
[2], x1 = 0.2955	–	–	1093 ± 3
[2], x1 = 0.3262	–	6.6e-08 ± 2e-09	–
[2], x1 = 0.3313	–	–	1099 ± 3
[2], x1 = 0.3955	–	–	1110 ± 3
[2], x1 = 0.4469	–	–	1118 ± 3
[2], x1 = 0.4629	–	6.2e-08 ± 2e-09	–
[2], x1 = 0.4947	–	–	1126 ± 3
[2], x1 = 0.515	–	5.8e-08 ± 2e-09	–
[2], x1 = 0.5211	–	–	1130 ± 3
[2], x1 = 0.5955	–	–	1143 ± 3
[2], x1 = 0.6692	–	4.2e-08 ± 2e-09	–
[2], x1 = 0.6955	–	–	1161 ± 3
[2], x1 = 0.7311	–	–	1168 ± 3
[2], x1 = 0.7837	–	2.8e-08 ± 2e-09	–
[2], x1 = 0.7965	–	–	1181 ± 3
[2], x1 = 0.8461	–	2e-08 ± 2e-09	–
[2], x1 = 0.8992	–	–	1203 ± 3
[2], x1 = 0.9239	–	1e-08 ± 2e-09	–

C1CCOCC1 [tetrahydropyran] + CCCCCCC
Details	excess molar enthalpy [kcal/mol]	excess molar volume [m3/mol]	speed of sound [m/s]
[1], x1 = 0.0842	0.0387 ± 0.000908	–	–
[1], x1 = 0.1777	0.0796 ± 0.00174	–	–
[1], x1 = 0.2324	0.101 ± 0.0022	–	–
[1], x1 = 0.3339	0.132 ± 0.00287	–	–
[1], x1 = 0.3741	0.141 ± 0.00311	–	–
[1], x1 = 0.4413	0.15 ± 0.00335	–	–
[1], x1 = 0.5008	0.153 ± 0.00335	–	–
[1], x1 = 0.5989	0.147 ± 0.00311	–	–
[1], x1 = 0.6821	0.13 ± 0.00287	–	–
[1], x1 = 0.7124	0.122 ± 0.00263	–	–
[1], x1 = 0.7654	0.104 ± 0.00227	–	–
[1], x1 = 0.8325	0.0779 ± 0.00172	–	–
[1], x1 = 0.8778	0.0581 ± 0.00129	–	–
[1], x1 = 0.9213	0.0379 ± 0.000884	–	–
[2], x1 = 0.0543	–	5.7e-08 ± 2e-09	–
[2], x1 = 0.0833	–	–	1100 ± 3
[2], x1 = 0.113	–	1.11e-07 ± 3e-09	–
[2], x1 = 0.1323	–	–	1107 ± 3
[2], x1 = 0.1977	–	–	1117 ± 3
[2], x1 = 0.2031	–	1.77e-07 ± 3e-09	–
[2], x1 = 0.2396	–	–	1127 ± 3
[2], x1 = 0.2613	–	2.1e-07 ± 3e-09	–
[2], x1 = 0.2998	–	2.28e-07 ± 3e-09	–
[2], x1 = 0.3245	–	–	1137 ± 3
[2], x1 = 0.3475	–	2.45e-07 ± 3e-09	–
[2], x1 = 0.3812	–	–	1145 ± 3
[2], x1 = 0.3991	–	2.58e-07 ± 4e-09	–
[2], x1 = 0.4396	–	–	1154 ± 3
[2], x1 = 0.4441	–	2.65e-07 ± 4e-09	–
[2], x1 = 0.4964	–	2.68e-07 ± 4e-09	–
[2], x1 = 0.5033	–	–	1163 ± 3
[2], x1 = 0.5601	–	2.64e-07 ± 4e-09	–
[2], x1 = 0.5684	–	–	1172 ± 3
[2], x1 = 0.6107	–	2.55e-07 ± 3e-09	–
[2], x1 = 0.6161	–	–	1178 ± 3
[2], x1 = 0.688	–	–	1187 ± 3
[2], x1 = 0.7123	–	2.2e-07 ± 3e-09	–
[2], x1 = 0.7646	–	–	1197 ± 3
[2], x1 = 0.8011	–	1.72e-07 ± 3e-09	–
[2], x1 = 0.8223	–	–	1204 ± 3
[2], x1 = 0.8999	–	9.8e-08 ± 2e-09	–
[2], x1 = 0.9044	–	–	1213 ± 3
